Oligonucleotides are written 5' to 3', each unit as a sugar letter and its base; * is a phosphorothioate linkage, no mark a phosphodiester; rarer units and linkages stand in square brackets, end groups in braces. Plain capitals give the bases only. d = 2'-deoxy (DNA)
Columns and labels:
[1] = system: lymphocytic choriomeningitis virus (LCMV); format: in vivo, mice
[2] = system: AdHBV (Hepatitis B Virus); assay: Chronic AdHBV infection, HBc-DNA vaccination followed by TLR9-L at d12; format: in vivo, mice
Source text: (a) Mice with chronic AdHBV-infection after 1×10^8 ifu AdHBV-infection. Time course of serum ALT following HBc-DNA vaccination (d0) and TLR9-L or CTRL treatment (d12). OVA-DNA vaccination as control. (n=5 per group). (b-f) At d15 after vaccination, (b) immunohistochemistry for CD11 b and CD8 in the liver as described in (a) at d15 after vaccination; (c) increase of HBc93-100-specific CTLs in spleen and liver detected by dextramer-staining. (n=3 per group), ND, not detectable; (d) IFNγ-producing HBc93-100-specific CTLs isolated from livers of mice after HBc-peptide-specific restimulation ex vivo; (e) total numbers of IFNγ-producing HBc93-100-specific CTLs after peptide-specific restimulation ex vivo per gram liver (n=3, per group); (f) PD-1 expression levels on HBc93-100-specific CTLs directly ex vivo. (g) Serum HBeAg levels from mice as described in (a). (h) Immunohistochemical detection and (i) quantification of HBcore-Ag-positive hepatocytes at d42 after vaccination. HPF, high power field (magnification, 100×). *P<0.05, **P<0.01, ***P<0.001 (paired Student's t-test). Data are representative of three experiments (a, c, d, e, f, g) or two experiments (b, h, i) (a, c, e, i; error bars, s.d.).
C57BL/6J mice were infected with 1×10^8 ifu AdHBV intravenously leading to chronic AdHBV infection, as reported previously (Huang et al. Gastroenterology 2012; 142:1447-50). DNA immunization was performed as described (Huang et al. Gastroenterology 2012; 142:1447-50). After immunization, HBeAg and serum ALT (alanine aminotransferase) activity measured using GPT strips on a REFLOVET™. Plus reader (Roche) were checked at indicated time points. Livers were collected for immunohistochemical analysis. Analysis of CTL number and function ex vivo was done as described previously (Huang et al. Gastroenterology 2012; 142:1447-50).
In this model, therapeutic DNA-vaccination leads to a weak increase in circulating HBV-specific CTLs but fails to control chronic_AdHBV infection. Mice with chronic AdHBV infection were subjected to DNA-vaccination with plasmids coding for the HBV core (HBc) antigen or OVA and received TLR9-L treatment 12 d later.

[3] = system: CD8+ T cells (TCM, TEM); assay: Proliferation of adoptively transferred TCM and TEM in the liver (BrdU incorporation, 7-AAD); format: in vivo, mice; conditions: 3 days after intravenous TLR9-ligand
[4] = system: CTLs; assay: Local CTL expansion in iMATEs in the liver after systemic TLR9-L application; format: in vivo, mice
Source text: We discovered that CTL activation by simultaneous stimulation through the TCR, CD28 and IL-12 in vitro, together with systemic application of TLR9-L led to a 50-fold expansion of CTLs locally in the liver. Myeloid cell aggregates, herewith termed iMATEs, which formed in the liver upon TLR9-signaling, facilitate massive CTL expansion, which contributes to anti-viral immunity and overcomes chronic viral infection in mice.

[5] = system: OT-I CTLs; assay: Hepatic OT-I CTL expansion and iMATE formation in AdLGO- or AdLG-infected mice
[6] = system: recombinant adenovirus expressing OVA and luciferase (AdLOG); assay: Acute adenoviral infection, in vivo bioluminescence as indicator of antiviral CTL activity in the liver
[7] = TLR9-L at d12 after HBcore-DNA vaccination

5′-S-TCCATGACGTTCCTGATGCT-3′ (DNA dT*dC*dC*dA*dT*dG*dA*dC*dG*dT*dT*dC*dC*dT*dG*dA*dT*dG*dC*dT) [TLR9-L]
numbers of LCMV gp33-specific CTLs in the liver ([1]; LCMV-specific CTL transfer (10^6/mouse) together with TLR9-L at d0, d7 and d10): significant increase
LCMV titers in serum and liver ([1]; LCMV-specific CTL transfer together with TLR9-L injection): dropped to background levels
numbers of LCMV-specific CTLs ([1]; TLR9-L application alone, d14 after the first transfer): did not lead to significant increases
iMATE induction in livers ([1]; chronic LCMV-infected mice): can be induced
serum ALT ([2]; DNA vaccination (HBc or OVA) and TLR9-L 12 d later, most pronounced in HBc-vaccinated mice): transient rise
serum HBeAg levels ([2]; HBc-DNA vaccination in combination with TLR9-L, after 28 d): significant downregulation
HBV-infected (HBcore-Ag-positive) hepatocytes ([2]; HBc-DNA vaccination in combination with TLR9-L, d42): elimination
PD1 expression on recently activated CD69+ HBcore-specific CTLs ([2]; HBc-DNA vaccination plus TLR9-L): lower expression levels
IFNgamma expression of HBcore-specific CTLs upon antigen-specific restimulation ex vivo [2, 7]: functional and expressed IFNγ
expansion of HBc-specific CTLs in livers [2, 7]: pronounced expansion
iMATE formation ([2]; mice with chronic AdHBV infection): induced iMATE formation
proliferation of adoptively transferred TEM in the liver [3]: marked proliferation
proliferation of adoptively transferred TCM in the liver ([3]; cells in S and G2-M phase): strong proliferation
expansion of CTLs locally in the liver ([4]; CTLs activated in vitro through TCR, CD28 and IL-12, with systemic TLR9-L): 50 fold
autoimmunity ([4]; single TLR9-L application): did not trigger autoimmunity
numbers of hepatic OT-I CTLs ([5]; AdLG-infected mice (no OVA antigen), 1x10^5 activated OT-I CTLs plus TLR9-L): increase
further expansion of OT-I CTLs ([5]; AdLGO-infected TLR9-L-injected mice, compared with AdLG-infected mice given TLR9-L): 7 fold
formation of iMATEs ([5]; upon TLR9-L injection in adenovirus-infected mice): further improved
in vivo bioluminescence (hepatic viral luciferase expression) ([6]; TLR9-L application alone, mice infected with 10^6 ifu AdLOG): did not significantly reduce
time to efficient control of hepatic viral luciferase expression ([6]; transfer of 10^4 OT-I CTLs together with TLR9-L, 10^6 ifu AdLOG): ≤ 4 days

Reference: patent US10195267B2, “Vaccination strategy” (priority 2013, dated 2019)
